Results taken from patent publication US10221161B2, “Inhibitors of plasma kallikrein” (Kalvista Pharmaceuticals Limited, priority 2013, dated 2019).

Experiments:
Human plasma kallikrein = Human plasma kallikrein (Homo sapiens (Human), UniProt P03952); assay: Determination of the IC50 for plasma kallikrein (fluorogenic substrate H-DPro-Phe-Arg-AFC); assay type: biochemical; settings: 37° C., read-out: IC50 (human PKal)
Experimental: Determination of the IC50 Plasma Kallikrein Plasma kallikrein inhibitory activity in vitro was determined using standard published methods (see e.g. Johansen et al., Int. J. Tiss. […] Shori et al., Biochem. Pharmacol., 1992, 43, 1209; Stürzebecher et al., Biol. Chem. Hoppe-Seyler, 1992, 373, 1025). Human plasma kallikrein (Protogen) was incubated at 37° C. with the fluorogenic substrate […] and various concentrations of the test compound.

Human KLK1 = Human KLK1 (Homo sapiens (Human), UniProt P06870); assay: Determination of the IC50 for KLK1 (fluorogenic substrate H-DVal-Leu-Arg-AFC); assay type: biochemical; settings: human KLK1, 37° C.
Experimental: Selected compounds were further screened for inhibitory activity against the related enzyme KLK1. The ability of the compounds of formula (I) to inhibit KLK1 may be determined using the following biological assay:
Determination of the IC50 for KLK1
KLK1 inhibitory activity in vitro was determined using standard published methods (see e.g. Johansen et al., Int. J. Tiss. Reac. 1986, 8, 185; Shori et al., Biochem. Pharmacol., 1992, 43, 1209; Stürzebecher et al., Biol. Chem. Hoppe-Seyler, 1992, 373, 1025). Human KLK1 (Callbiochem) was incubated at 37° C. with the fluorogenic substrate H-DVal-Leu-Arg-AFC and various concentrations of the test compound. Residual enzyme activity (initial rate of reaction) was determined by measuring the change in optical absorbance at 410 nm and the IC50 value for the test compound was determined.

Human plasma kallikrein, sequence (P03952 391-638 limits assumed): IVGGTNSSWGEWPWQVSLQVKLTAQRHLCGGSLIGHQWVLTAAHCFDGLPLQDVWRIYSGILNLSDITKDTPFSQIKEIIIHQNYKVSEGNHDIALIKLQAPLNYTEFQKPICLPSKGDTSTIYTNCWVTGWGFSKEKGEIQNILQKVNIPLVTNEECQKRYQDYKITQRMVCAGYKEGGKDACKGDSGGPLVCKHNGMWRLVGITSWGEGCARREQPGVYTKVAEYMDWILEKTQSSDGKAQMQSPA
Human plasma kallikrein, sequence (P03952 20-390 partner limits assumed): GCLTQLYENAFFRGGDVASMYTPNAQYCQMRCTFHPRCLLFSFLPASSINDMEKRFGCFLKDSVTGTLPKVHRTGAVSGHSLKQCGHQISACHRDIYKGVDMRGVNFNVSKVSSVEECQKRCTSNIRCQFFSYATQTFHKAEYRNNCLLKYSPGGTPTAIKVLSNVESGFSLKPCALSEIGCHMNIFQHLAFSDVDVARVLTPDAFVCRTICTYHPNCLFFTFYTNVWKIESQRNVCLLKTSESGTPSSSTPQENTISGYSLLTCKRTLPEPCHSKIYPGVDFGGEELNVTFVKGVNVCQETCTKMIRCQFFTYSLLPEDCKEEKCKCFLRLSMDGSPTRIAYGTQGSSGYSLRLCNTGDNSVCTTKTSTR
Human KLK1, sequence (P06870 25-262): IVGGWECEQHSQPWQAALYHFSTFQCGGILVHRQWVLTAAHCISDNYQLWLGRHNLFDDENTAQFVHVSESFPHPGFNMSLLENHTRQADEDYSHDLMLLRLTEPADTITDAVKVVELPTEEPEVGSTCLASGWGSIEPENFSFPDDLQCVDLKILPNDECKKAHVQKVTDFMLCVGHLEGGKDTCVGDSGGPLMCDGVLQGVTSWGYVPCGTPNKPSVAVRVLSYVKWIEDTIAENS

Row | Structure (SMILES) | IC50 (Human plasma kallikrein) | IC50 (Human KLK1)
1 | Cc1cnn(Cc2ccc(Cc3cncc(C(=O)NCc4ccc5c(N)nccc5c4)n3)cc2)c1 [Example 9, N-[(1-Aminoisoquinolin-6-yl)methyl]-6-({4-[(4-methylpyrazol-1-yl)methyl]phenyl}methyl)pyrazine-2-carboxamide] | 0.0308 µM | 5.34 µM
2 | CC(C)N(C)c1ccc(Cc2cncc(C(=O)NCc3ccc4c(N)nccc4c3)c2)cn1 [Example 73, N-[(1-Aminoisoquinolin-6-yl)methyl]-5-({6-[isopropyl(methyl)amino]pyridin-3-yl}methyl)pyridine-3-carboxamide] | 0.0511 µM | 6.69 µM
3 | CC(C)Oc1ccc(Cc2cncc(C(=O)NCc3ccc4c(N)nccc4c3)c2)cn1 [Example 70, N-[(1-Aminoisoquinolin-6-yl)methyl]-5-[(6-isopropoxypyridin-3-yl)methyl]pyridine-3-carboxamide] | 1.74 µM | > 10 µM
4 | Nc1nccc2cc(CNC(=O)c3cncc(CN4CCN(Cc5cccc(F)c5)CC4)c3)ccc12 [Example 46, N-[(1-Aminoisoquinolin-6-yl)methyl]-5-({4-[(3-fluorophenyl)methl]piperazin-1-yl}methyl)pyridine-3-carboxamide] | 7.51 µM | 29.2 µM
5 | Cc1cnn(Cc2ccc(Cc3cncc(C(=O)NCc4c(C)cc(CN)cc4C)c3)cc2)c1 [Example 94, N-{[4-(Aminomethyl)-2,6-dimethylphenyl]methyl}-5-({4-[(4-methylpyrazol-1-yl)methyl]phenyl}methyl)pyridine-3-carboxamide] | 0.00747 µM | > 40 µM
6 | Nc1nccc2cc(CNC(=O)c3cncc(CN4CCN(Cc5ccc(F)cc5)CC4)c3)ccc12 [Example 48, N-[(1-Aminoisoquinolin-6-yl)methyl]-5-({4-[(4-fluorophenyl)methyl]piperazin-1-yl}methyl)pyridine-3-carboxamide] | 21.9 µM | > 40 µM
7 | Nc1nccc2cc(CNC(=O)c3cncc(Cc4ccc(N5CCOCC5)nc4)c3)ccc12 [Example 63, N-[(1-Aminoisoquinolin-6-yl)methyl]-5-{[6-(morpholin-4-yl)pyridin-3-yl]methyl}pyridine-3-carboxamide] | 0.432 µM | > 10 µM
8 | Cc1cnn(Cc2ccc(Cc3ccnc(C(=O)NCc4ccc5c(N)nccc5c4)c3)cc2)c1 [Example 3, N-[(1-Aminoisoquinolin-6-yl)methyl]-4-({4-[(4-methylpyrazol-1-yl)methyl]phenyl}methyl)pyridine-2-carboxamide] | 0.159 µM | > 40 µM
9 | COCCOc1ccc(Cc2cncc(C(=O)NCc3ccc4c(N)nccc4c3)c2)cc1 [Example 34, N-[(1-Aminoisoquinolin-6-yl)methyl]-5-{[4-(2-methoxyethoxy)phenyl]methyl}pyridine-3-carboxamide] | 1.02 µM | > 40 µM
10 | CCN(CC)c1cc(Cc2cncc(C(=O)NCc3ccc4c(N)nccc4c3)c2)ccn1 [Example 87, N-[(1-Aminoisoquinolin-6-yl)methyl]-5-{[2-(diethylamino)pyridin-4-yl]methyl}pyridine-3-carboxamide] | 0.358 µM | 4.98 µM
11 | Nc1nccc2cc(CNC(=O)c3cncc(Cc4ccnc(N5CCC(F)(F)C5)c4)c3)ccc12 [Example 80, N-[(1-Aminoisoquinolin-6-yl)methyl]-5-{[2-(3,3-difluoropyrrolidin-1-yl)pyridin-4-yl]methyl}pyridine-3-carboxamide] | 0.0885 µM | 7.55 µM
12 | COC1CCN(c2cc(Cc3cncc(C(=O)NCc4ccc5c(N)nccc5c4)c3)ccn2)C1 (centres unmarked) [Example 88, N-[(1-Aminoisoquinolin-6-yl)methyl]-5-{[2-(3-methoxypyrrolidin-1-yl)pyridin-4-yl]methyl}pyridine-3-carboxamide] | 0.234 µM | 9.85 µM
13 | Cc1ccc2cc(Cc3cncc(C(=O)NCc4c(C)nc5[nH]ccc(C)c4-5)c3)ccc2n1 [Example 13, N-({2,4-Dimethyl-7H-pyrrolo[2,3-b]pyridin-3-yl}methyl)-5-[(2-methylquinolin-6-yl)methyl]pyridine-3-carboxamide] | 0.923 µM | 0.236 µM
14 | Nc1nccc2cc(CNC(=O)c3cncc(Cc4ccnc(N5CCCC5=O)c4)c3)ccc12 [Example 76, N-[(1-Aminoisoquinolin-6-yl)methyl]-5-{[2-(2-oxopyrrolidin-1-yl)pyridin-4-yl]methyl}pyridine-3-carboxamide] | 0.242 µM | 3.75 µM
15 | Nc1nccc2cc(CNC(=O)c3cncc(Cc4ccc(N5CCC(C(=O)O)C5)nc4)c3)ccc12 (centres unmarked) [Example 75, 1-{5-[(5-{[(1-Aminoisoquinolin-6-yl)methyl]carbamoyl}pyridin-3-yl)methyl]pyridin-2-yl}pyrrolidine-3-carboxylic acid] | 6.12 µM | > 10 µM
16 | Cc1cnn(CCOCc2cncc(C(=O)NCc3ccc4c(N)nccc4c3)c2)c1 [Example 40, N-[(1-Aminoisoquinolin-6-yl)methyl]-5-{[2-(4-methylpyrazol-1-yl)ethoxy]methyl}pyridine-3-carboxamide] | 0.127 µM | 4.87 µM
17 | Cc1cnn(Cc2ccc(Cc3cncc(C(=O)NCc4c(C)cc(CN)cc4C)n3)cc2)c1 [Example 95, N-{[4-(Aminomethyl)-2,6-dimethylphenyl]methyl}-6-({4-[(4-methylpyrazol-1-yl)methyl]phenyl}methyl)pyrazine-2-carboxamide] | 0.0536 µM | > 40 µM
18 | Nc1nccc2cc(CNC(=O)c3cncc(Cc4ccc(N5CCC(F)C5)nc4)c3)ccc12 (centres unmarked) [Example 60, N-[(1-Aminoisoquinolin-6-yl)methyl]-5-{[6-(3-fluoropyrrolidin-1-yl)pyridin-3-yl]methyl}pyridine-3-carboxamide] | 0.137 µM | 8.69 µM
19 | CN(C)[C@H]1CCN(c2ccc(Cc3cncc(C(=O)NCc4ccc5c(N)nccc5c4)c3)cn2)C1 (stereo in doubt) [Example 68, N-[(1-Aminoisoquinolin-6-yl)methyl]-5-({6-[3-(dimethylamino)pyrrolidin-1-yl]pyridin-3-yl}methyl)pyridine-3-carboxamide] | 0.375 µM | 3.51 µM
20 | COc1cccc(Cc2cncc(C(=O)NCc3ccc4c(N)nccc4c3)c2)c1 [Example 25, N-[(1-Aminoisoquinolin-6-yl)methyl]-5-[(3-methoxyphenyl)methyl]pyridine-3-carboxamide] | 2.64 µM | 6.17 µM
21 | Nc1nccc2cc(CNC(=O)c3cncc(CN4CCN(c5ccccc5)CC4)c3)ccc12 [Example 39, N-[(1-Aminoisoquinolin-6-yl)methyl]-5-[(4-phenylpiperazin-1-yl)methyl]pyridine-3-carboxamide] | 10 µM | 
22 | Cc1cnn(Cc2ccc(Cc3cncc(C(=O)NCc4ccc5c(N)nccc5c4)c3)cc2)c1 [Example 1, N-[(1-Aminoisoquinolin-6-yl)methyl]-({4-[(4-methylpyrazol-1-yl)methyl]phenyl}methyl)pyridine-3-carboxamide] |  | > 10 µM
23 | Cn1cc(CN2CCN(Cc3cncc(C(=O)NCc4ccc5c(N)nccc5c4)c3)CC2)cn1 [Example 47, N-[(1-Aminoisoquinolin-6-yl)methyl]-5-({4-[(1-methylpyrazol-4-yl)methyl]piperazin-1-yl}methyl)pyridine-3-carboxamide] | 40 µM | > 40 µM
24 | Nc1nccc2cc(CNC(=O)c3cncc(CN4CCN(CC5CCCC5)CC4)c3)ccc12 [Example 43, N-[(1-Aminoisoquinolin-6-yl)methyl]-5-{[4-(cyclopentylmethyl)piperazin-1-yl]methyl}pyridine-3-carboxamide] | 11 µM | 17.9 µM
25 | Nc1nccc2cc(CNC(=O)c3ccc(=O)n(Cc4csc(-c5ccccc5)n4)c3)ccc12 [Example 14, N-[(1-Aminoisoquinolin-6-yl)methyl]-6-oxo-1-[(2-phenyl-1,3-thiazol-4-yl)methyl]pyridine-3-carboxamide] | 2.67 µM | 4.16 µM
26 | COc1ccc(CN2CCN(Cc3cncc(C(=O)NCc4ccc5c(N)nccc5c4)c3)CC2)cc1 [Example 45, N-[(1-Aminoisoquinolin-6-yl)methyl]-5-({4-[(4-methoxyphenyl)methyl]piperazin-1-yl}methyl)pyridine-3-carboxamide] | 33.6 µM | 26.9 µM
27 | CC1CCCN1c1cc(Cc2cncc(C(=O)NCc3ccc4c(N)nccc4c3)c2)ccn1 (centres unmarked) [Example 79, N-[(1-Aminoisoquinolin-6-yl)methyl]-5-{[2-(2-methylpyrrolidin-1-yl)pyridin-4-yl]methyl}pyridine-3-carboxamide] | 0.155 µM | 7.14 µM
28 | COc1ccccc1CN1CCN(Cc2cncc(C(=O)NCc3ccc4c(N)nccc4c3)c2)CC1 [Example 42, N-[(1-Aminoisoquinolin-6-yl)methyl]-5-({4-[(2-methoxyphenyl)methyl]piperazin-1-yl}methyl)pyridine-3-carboxamide] | 1.83 µM | 24.3 µM
29 | Cc1cnn(Cc2ccc(Cc3ccnc(C(=O)NCc4cnc5[nH]ccc5c4)c3)cc2)c1 [Example 4] |  | > 40 µM
30 | Cc1cnn(Cc2ccc(Cc3cncc(C(=O)NCc4cnc5[nH]ccc5c4)c3)cc2)c1 [Example 2] |  | > 10 µM
